conditions: [M+H]+; instrument: TW; Major Mix IMS/Tof Calibration Kit (Waters)

Row | collision cross section (N2) [Å²] | Compound
1 | 178.6 | COc1ccc(CC(C)NCC(O)c2ccc(O)c(NC=O)c2)cc1 (stereo not drawn) [Formoterol]
2 | 170.4 | Cc1cc(C(C)(C)C)cc(C)c1CC1=NCCN1 [Xylometazoline]
3 | 157.7 | CCN(CC)CC(=O)Nc1c(C)cccc1C [Lidocaine]
4 | 161.3 | CC(C)NC(=N)NC(=N)Nc1ccc(Cl)cc1 [Proguanil]
5 | 175.5 | Cc1cc2c(s1)Nc1ccccc1N=C2N1CCN(C)CC1 [Olanzapine]
6 | 168.2 | CC(CCc1ccc(O)cc1)NCCc1ccc(O)c(O)c1 (stereo not drawn) [Dobutamine]
7 | 173.1 | CCCCNc1ccc(C(=O)OCCN(C)C)cc1 [Tetracaine]
8 | 229.8 | CC(C)(C)c1ccc(C(O)CCCN2CCC(C(O)(c3ccccc3)c3ccccc3)CC2)cc1 (stereo not drawn) [Terfenadine]
9 | 186.5 | COC(=O)[C@@H]1[C@H]2C[C@H]3c4[nH]c5ccccc5c4CCN3C[C@@H]2CC[C@@H]1O [Yohimbine]
10 | 194.3 | COc1ccc2c(c1OC)C(=O)O[C@@H]2[C@H]1c2c(cc3c(c2OC)OCO3)CCN1C [Noscapine]
11 | 188.1 | CN1CCN(CCCN2c3ccccc3Sc3ccc(C(F)(F)F)cc32)CC1 [Trifluoperazine]
12 | 160 | CC(C)(C)NCC(O)c1ccc(O)c(CO)c1 (stereo not drawn) [Salbutamol]
13 | 161 | CN1CCN2c3ncccc3Cc3ccccc3C2C1 (stereo not drawn) [Mirtazapine]

More lines, now with the values behind:

Row | Compound | collision cross section (N2) [Å²]
14 | CCNC(C)Cc1ccc2c(c1)OCO2 (stereo not drawn) [MDEA] | 147.5
15 | NCC(CC(=O)O)c1ccc(Cl)cc1 (stereo not drawn) [Baclofen] | 149.2
16 | Cc1ccc(/C(=C\CN2CCCC2)c2cccc(/C=C/C(=O)O)n2)cc1 [Acrivastine] | 193.9
17 | CC1NCCOC1c1ccccc1 (stereo not drawn) [Phenmetrazine] | 138.9
18 | CCC(Br)(CC)C(=O)NC(N)=O [Carbromal] | 139.8
19 | Clc1ccc2c(c1)C(N1CCNCC1)=Nc1ccccc1O2 [Amoxapine] | 170.2
20 | COc1ccc2[nH]cc(CCN(C)C)c2c1 [5-MeO-DMT] | 150.3
21 | CC(C)=CCN1CCC2(C)c3cc(O)ccc3CC1C2C (stereo not drawn) [Pentazocine] | 173.5
22 | CN(C)CC(c1ccc(O)cc1)C1(O)CCCCC1 (stereo not drawn) [Desvenlafaxine] | 166.7
23 | CCNC1(c2cccc(OC)c2)CCCCC1=O (stereo not drawn) [Methoxetamine] | 159.6
24 | CN1CCN(C(=O)OC2c3nccnc3C(=O)N2c2ccc(Cl)cn2)CC1 (stereo not drawn) [Zopiclone] | 188.5
25 | CCOC(=O)C1=C(COCCN)NC(C)=C(C(=O)OC)C1c1ccccc1Cl (stereo not drawn) [Amlodipine] | 188
26 | CN(C)CCC=C1c2ccccc2CCc2ccccc21 [Amitriptyline] | 167.2
27 | CC(=O)OC1CC[C@H]2[C@@H]3CC[C@H]4CC(=O)C=C(C)[C@]4(C)[C@H]3CC[C@]12C (stereo partly drawn) [Metenolone acetate] | 187.6
28 | CCC(NC)C(=O)c1ccc2c(c1)OCO2 (stereo not drawn) [Butylone] | 151
29 | CN(C)CCc1c[nH]c2cccc(O)c12 [Psilocin] | 144.8
30 | OCc1nnc2n1-c1ccc(Cl)cc1C(c1ccccc1)=NC2 [Alprazolam-M alpha-Hydroxy] | 173.3
31 | CCC(Cc1ccc2c(c1)OCO2)NC (stereo not drawn) [MBDB] | 148.4
32 | COc1ccc2c3c1O[C@H]1[C@@H](O)CC[C@H]4[C@@H](C2)N(C)CC[C@@]341 [Dihydrocodeine] | 168.6
33 | CCN(CC)CCOCCOC(=O)C1(c2ccccc2)CCCC1 [Pentoxyverine] | 175.5

Reference: the C3SDB collision cross section collection
